Measured values: patent publication US20130165471A1, “2-SUBSTITUTED-THIENOQUINOLONES AND RELATED COMPOUNDS AS ANTI-INFECTIVE AGENTS” (Achillion Pharmaceuticals Inc., priority 2011, published 2013)
Values after ≈ are worked out from the molar mass of the structure shown.

Experiments:
[1] = tested on: fluoroquinolone-resistant S. aureus ATCC 700699; assay: Minimum inhibitory concentration (MIC) assay, MRSA; type: cell-based; conditions: Staphylococcus aureus, broth microdilution
Procedure: (§1) The preparation of compounds listed in Table I can be carried out under conditions analogous to those described in the examples above. Those of skill in the art will recognize routine changes in reaction conditions and starting materials needed to produce the listed compounds. For example, compound 5 in Table I, is prepared by the method shown above, except tert-butyl (1-(pyrrolidin-3-yl)ethyl)carbamate, prepared by the method shown in Schoeder, et al., J. Heterocyclic Chem., 29: 1481-1498 (1992), is used as the amine starting material. Compound activity was evaluated in a standard minimal inhibitory concentration assay such as the assay provided in Example 4. Compound cytotoxicity is determined using a standard assay of cytotoxicity such as the assay provided in Example 5. Compounds 10, 14, and 20 of Table I are provided as comparative examples.
(§2) The antimicrobial activity of the compounds of the invention may be evaluated by a number of methods, including the following visual minimum inhibitory concentration (MIC) assay. This assay determines the minimum concentration of compound required to inhibit growth of a bacterial strain.
(§3) Whole-cell antibacterial activity is determined by broth microdilution using conditions recommended by the NCCLS (see National Committee for Clinical Laboratory Standards. 2001. Performance standards for antimicrobial susceptibility testing: 11th informational supplement. Vol. 21, no. 1, M100-S11. National Committee for Clinical Laboratory Standards, Wayne, Pa.). Test compounds are dissolved in DMSO and diluted 1:50 in Mueller-Hinton II broth (Becton-Dickinson) to produce a 256 μg/ml stock solution. In a 96-well microtiter plate, the compound solution is serially two-fold diluted in Mueller-Hinton II broth. After the compounds are diluted, a 50 μl aliquot of the test organism (˜1×10^6 cfu/mL) is added to each well of the microtiter plate. The final test concentrations range from 0.125-128 μg/mL. Inoculated plates are incubated in ambient air at 37° C. for 18 to 24 hours. The organisms selected for testing included laboratory strains S. aureus ATCC 29213 and E. coli ATCC 25922 (strains purchased from American Type Culture Collection, Manassas, Va.) m, S. aureus FQR700699, and Paeruginosa 27853. The minimum inhibitory concentration (MIC) is determined as the lowest concentration of compound that inhibited visible growth of the test organism.

[2] = tested on: Hep2; assay: Cytotoxicity, cell viability staining with Alamar Blue; type: cell-based, human; design: unit not given here; conditions: Hep2 cells
Procedure: as §1
To determine whether the microcidal effect observed against S. aureus and E. coli is specific to bacterial cells, compounds are screened for cell viability effects on several human cell types.
Optimal cell density is first determined by plating cells in a 96-well plate standard sterile tissue culture plates in 100 μl media, 10% FBS at six cell densities from 500 cells/well to 15,000 cells/well. A cell free well containing only media is used as a control. Cells are incubated at 37° C. in a 5% CO2 incubator for 24 hours. 10% culture volume (10 ul) of Alamar Blue (Biosource, DAL1100, 100 mL) is then added. Cells are incubated at 37° C. in a 5% CO2 incubator and read in a Victor V plate reader, 544 nm excitation, 590 nm emission, at 3, 4, and 24 hours after the addition of Alamar Blue. The cell number vs. change in fluorescence is plotted to determine linearity of signal vs. cell number. The optimal density varies between 500-15,000 cells/well depending on the specific cell type. The optimal density is selected based on the highest number of cells that is still in the linear response range.
Cells are plated at optimal cell density in a standard sterile tissue culture 96 well plate, and incubated at 37° C., O/N in a 5% CO2 incubator. 12 to 48 hours post-plating media is removed. The cells are washed 1 or 2 times with 1×PBS and replaced with fresh media containing the test compound in 1% DMSO. 24 to 72 hours after addition of compound, the media is removed, and the cells washed 1 to 2 times with 1×PBS. Fresh media containing 1/10 volume of Alamar Blue is then added. Plates are incubated 4 hours at 37° C. in a 5% CO2 incubator and read in a Victor V plate reader, 544 nm excitation, 590 nm emission.
Compounds are diluted to 20 micromolar in 1% DMSO and media and screened in duplicate to obtain single concentration cytotoxicity data. Eight concentration points from 0.78 micromolar to 100 micromolar, run in duplicate, are used to determine cytotoxicity CC50 values. Cells with 1% DMSO and media are used as a negative control, compounds having a known CC50 against a particular cell type are used as positive controls.
The change in fluorescence vs. concentration of test compound is plotted to determine the cytotoxicity of the compound.

[3] = tested on: S. aureus ATCC 29213; assay: Minimum inhibitory concentration (MIC) assay, MSSA; type: cell-based; conditions: Staphylococcus aureus, broth microdilution
Procedure: as §1, §2, §3

Compound	MIC [1]	Cytotoxicity Hep2 [2]	MIC [3]
COc1c(N2CCCC(CN)C2)c(F)cc2c(=O)c3c(O)c(C(N)=O)sc3n(C3CC3)c12 (stereo not drawn) [Compound 5, 7-(3-(aminomethyl)piperidin-1-yl)-9-cyclopropyl-6-fluoro-3-hydroxy-8-methoxy-4-oxo-4,9-dihydrothieno[2,3-b]quinoline-2-carboxamide]	2 µg/mL (≈ 4.34 µM)	30	0.5 µg/mL (≈ 1.09 µM)
COc1c(N2CCCC(=C(F)CN)C2)c(F)cc2c(=O)c3c(O)c(C(C)=O)sc3n(C3CC3)c12 [Compound 6, 2-acetyl-7-(3-(2-amino-1-fluoroethylidene)piperidin-1-yl)-9-cyclopropyl-6-fluoro-3-hydroxy-8-methoxythieno [2,3-b]quinolin-4(9H)-one]	0.5 µg/mL (≈ 1.02 µM)	–	0.25 µg/mL (≈ 0.511 µM)
COc1c(N2CC[C@H](N)C2)c(F)cc2c(=O)c3c(O)c(C(C)=O)sc3n(C3CC3)c12 [Compound 7, (S)-2-acetyl-7-(3-aminopyrrolidin-1-yl)-9-cyclopropyl-6-fluoro-3-hydroxy-8-methoxythieno [2,3-b]quinolin-4(9H)-one]	0.25 µg/mL (≈ 0.579 µM)	35	0.13 µg/mL (≈ 0.301 µM)
COc1c(N2CC[C@@H]([C@H](C)N)C2)c(F)cc2c(=O)c3c(O)c(C(C)=O)sc3n(C3CC3)c12 [Compound 8, 2-acetyl-7-((R)-3-((S)-1-aminoethyl)pyrrolidin-1-yl)-9-cyclopropyl-6-fluoro-3-hydroxy-8-methoxythieno [2,3-b]quinolin-4(9H)-one]	0.13 µg/mL (≈ 0.283 µM)	9	0.03 µg/mL (≈ 0.0653 µM)
COc1c(N2CCC(CN)CC2)c(F)cc2c(=O)c3c(O)c(C(C)=O)sc3n(C3CC3)c12 [Compound 9, 2-acetyl-7-(4-(aminomethyl)piperidin-1-yl)-9-cyclopropyl-6-fluoro-3-hydroxy-8-methoxythieno[2,3-b] quinolin-4(9H)-one]	1 µg/mL (≈ 2.18 µM)	42	0.25 µg/mL (≈ 0.544 µM)
COc1c(N2CC[C@@H](CN)C2)c(F)cc2c(=O)c3c(O)csc3n(C3CC3)c12 [Compound 10, (S)-7-(3-(aminomethyl)pyrrolidin-1-yl)-9-cyclopropyl-6-fluoro-3-hydroxy-8-methoxythieno[2,3-b] quinolin-4(9H)-one]	–	24	4 µg/mL (≈ 9.91 µM)
COc1c(N2CC[C@@H](CNC(C)=O)C2)c(F)cc2c(=O)c3c(O)c(C(C)=O)sc3n(C3CC3)c12 [Compound 11, (S)-N-((1-(2-acetyl-9-cyclopropyl-6-fluoro-3-hydroxy-8-methoxy-4-oxo-4,9-dihydrothieno [2,3-b]quinolin-7-yl)pyrrolidin-3-yl)methyl) acetamide]	0.5 µg/mL (≈ 1.03 µM)	60	0.13 µg/mL (≈ 0.267 µM)
COc1c(N2CC[C@H](CN)C2)c(F)cc2c(=O)c3c(O)c(C(C)=O)sc3n(C3CC3)c12 [Compound 13, (R)-2-acetyl-7-(3-(aminomethyl)pyrrolidin-1-yl)-9-cyclopropyl-6-fluoro-3-hydroxy-8-methoxythieno[2,3-b] quinolin-4(9H)-one]	0.25 µg/mL (≈ 0.561 µM)	–	0.13 µg/mL (≈ 0.292 µM)
COc1c(N2CC[C@@H](CNC(C)=O)C2)c(F)cc2c(=O)c3c(n(C4CC4)c12)SCC3=O [Compound 14, (S)-N-((1-(9-cyclopropyl-6-fluoro-8-methoxy-3,4-dioxo-2,3,4,9-tetrahydrothieno [2,3-b]quinolin-7-yl)pyrrolidin-3-yl)methyl) acetamide]	> 64 µg/mL	–	32 µg/mL (≈ 71.8 µM)
COc1c(N2CC[C@@H](CNC(=O)CN)C2)c(F)cc2c(=O)c3c(O)c(C(C)=O)sc3n(C3CC3)c12 [Compound 15, (S)-N-((1-(2-acetyl-9-cyclopropyl-6-fluoro-3-hydroxy-8-methoxy-4-oxo-4,9-dihydrothieno [2,3-b]quinolin-7-yl)pyrrolidin-3-yl)methyl)-2-aminoacetamide]	1 µg/mL (≈ 1.99 µM)	–	0.5 µg/mL (≈ 0.995 µM)
COc1c(N2CC[C@@H](CNS(=O)(=O)c3cc(F)ccc3C)C2)c(F)cc2c(=O)c3c(O)c(C(C)=O)sc3n(C3CC3)c12 [Compound 16, (R)-N-((1-(2-acetyl-9-cyclopropyl-6-fluoro-3-hydroxy-8-methoxy-4-oxo-4,9-dihydrothieno [2,3-b]quinolin-7-yl)pyrrolidin-3-yl)methyl)-5-fluoro-2-methylbenzenesulfonamide]	> 64 µg/mL	–	32 µg/mL (≈ 51.8 µM)
COc1c(N2CC[C@@H](CNS(=O)(=O)c3cc(F)ccc3C)C2)c(F)cc2c(=O)c3c(OS(=O)(=O)c4cc(F)ccc4C)c(C(C)=O)sc3n(C3CC3)c12 [Compound 17, (R)-2-acetyl--cyclopropyl-6-fluoro-7-(3-((5-fluoro-2-methylphenylsulfonamido)methyl)pyrrolidin-1-yl)-8-methoxy-4-oxo-4,9-dihydrothieno[2,3-b] quinolin-3-yl 5-fluoro-2-methylbenzenesulfonate]	> 64 µg/mL	–	> 64 µg/mL
COc1c(N2CC[C@H](NC(C)=O)C2)c(F)cc2c(=O)c3c(O)c(C(C)=O)sc3n(C3CC3)c12 [Compound 18, (S)-N-(1-(2-acetyl-9-cyclopropyl-6-fluoro-3-hydroxy-8-methoxy-4-oxo-4,9-dihydrothieno [2,3-b]quinolin-7-yl)pyrrolidin-3-yl)acetamide]	1 µg/mL (≈ 2.11 µM)	–	0.25 µg/mL (≈ 0.528 µM)
COc1c(N2CC[C@@H]([C@H](C)NC(C)=O)C2)c(F)cc2c(=O)c3c(O)c(C(C)=O)sc3n(C3CC3)c12 [Compound 19, N-((S)-1-((R)-1-(2-acetyl-9-cyclopropyl-6-fluoro-3-hydroxy-8-methoxy-4-oxo-4,9-dihydrothieno[2,3-b]quinolin-7-yl)pyrrolidin-3-yl)ethyl) acetamide]	0.5 µg/mL (≈ 0.997 µM)	–	0.25 µg/mL (≈ 0.498 µM)
COc1c(N2CC[C@@H]([C@H](C)N)C2)c(F)cc2c(=O)c3c(n(C4CC4)c12)SCC3=O [Compound 20, 7-((R)-3-((S)-1-aminoethyl)pyrrolidin-1-yl)-9-cyclopropyl-6-fluoro-8-methoxythieno[2,3-b] quinoline-3,4(2H,9H)-dione]	16 µg/mL (≈ 38.3 µM)	–	4 µg/mL (≈ 9.58 µM)
COc1c(N2CC[C@@H]([C@@H](C)N)C2)c(F)cc2c(=O)c3c(O)c(C(C)=O)sc3n(C3CC3)c12 [Compound 21, 2-acetyl-7-((R)-3-((R)-1-aminoethyl)pyrrolidin-1-yl)-9-cyclopropyl-6-fluoro-3-hydroxy-8-methoxythieno[2,3-b] quinolin-4(9H)-one]	1 µg/mL (≈ 2.18 µM)	–	0.13 µg/mL (≈ 0.283 µM)
COc1c(N2CC[C@@H]([C@H](C)NC(=O)OC(C)(C)C)C2)c(F)cc2c(=O)c3c(O)c(C(C)=O)sc3n(C3CC3)c12 [Compound 22, tert-butyl ((S)-1-((R)-1-(2-acetyl-9-cyclopropyl-6-fluoro-3-hydroxy-8-methoxy-4-oxo-4,9-dihydrothieno[2,3-b]quinolin-7-yl)pyrrolidin-3-yl)ethyl)carbamate]	> 64 µg/mL	–	> 64 µg/mL
